Patent US20260262643A1, “HERBICIDAL BENZOXAZINES” (FMC CORPORATION, priority 2022, published 2026)

Tests used:
barnyardgrass [1] = experiment: Test C preemergence; assay type: in vivo, Echinochloa crusgalli; details: for Barnyardgrass plant response rating: preemergence; for Plant response rating, Barnyardgrass: Preemergence
How it was run: (§1)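 Seeds sown in loam soil–sand blend received a directed preemergence soil spray of test chemical in non-phytotoxic solvent with surfactant; postemergence plants (2–10 cm, one- to two-leaf stage) were sprayed with the same formulation. Greenhouse-held 10 days, then visually rated for injury versus untreated controls, 0 (no effect) to 100 (complete control).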

blackgrass [2] = experiment: Test C preemergence; assay type: in vivo, Alopecurus myosuroides; details: for Blackgrass plant response rating: preemergence; for Plant response rating, Blackgrass: Preemergence
How it was run: as §1

corn [3] = experiment: Test C preemergence; assay type: in vivo, Zea mays; details: for Corn plant response rating: preemergence; for Plant response rating, Corn: Preemergence
How it was run: as §1

green foxtail [4] = experiment: Test C preemergence; assay type: in vivo, Setaria viridis; details: for Foxtail, Green plant response rating: preemergence; for Plant response rating, Foxtail, Green: Preemergence
How it was run: as §1

kochia [5] = experiment: Test C preemergence; assay type: in vivo, Bassia scoparia; details: for Kochia plant response rating: preemergence; for Plant response rating, Kochia: Preemergence
How it was run: as §1

oat, wild [6] = experiment: Test C preemergence; assay type: in vivo, Avena fatua; details: for Oat, Wild plant response rating: preemergence; for Plant response rating, Oat, Wild: Preemergence
How it was run: as §1

pigweed, palmer [7] = experiment: Test C preemergence; assay type: in vivo, Amaranthus palmeri; details: for Plant response rating, Pigweed, Palmer: Preemergence
How it was run: as §1

ragweed [8] = experiment: Test C preemergence; assay type: in vivo, Ambrosia artemisiifolia; details: for Ragweed plant response rating: preemergence; for Plant response rating, Ragweed: Preemergence
How it was run: as §1

ryegrass, Italian [9] = experiment: Test C preemergence; assay type: in vivo, Lolium multiflorum; details: for Ryegrass, Italian plant response rating: preemergence; for Plant response rating, Ryegrass, Italian: Preemergence
How it was run: as §1

soybean [10] = experiment: Test C preemergence; assay type: in vivo, Glycine max; details: for Soybean plant response rating: preemergence; for Plant response rating, Soybean: Preemergence
How it was run: as §1

wheat [11] = experiment: Test C preemergence; assay type: in vivo, Triticum aestivum; details: for Wheat plant response rating: preemergence; for Plant response rating, Wheat: Preemergence
How it was run: as §1

barnyardgrass [12] = experiment: Test C postemergence; assay type: in vivo, Echinochloa crusgalli; details: 10 days
How it was run: as §1

blackgrass [13] = experiment: Test C postemergence; assay type: in vivo, Alopecurus myosuroides; details: 10 days
How it was run: as §1

corn [14] = experiment: Test C postemergence; assay type: in vivo, Zea mays; details: 10 days
How it was run: as §1

green foxtail [15] = experiment: Test C postemergence; assay type: in vivo, Setaria viridis; details: 10 days
How it was run: as §1

kochia [16] = experiment: Test C postemergence; assay type: in vivo, Bassia scoparia; details: 10 days
How it was run: as §1

oat, wild [17] = experiment: Test C postemergence; assay type: in vivo, Avena fatua; details: 10 days
How it was run: as §1

pigweed, palmer [18] = experiment: Test C postemergence; assay type: in vivo, Amaranthus palmeri; details: 10 days
How it was run: as §1

ragweed [19] = experiment: Test C postemergence; assay type: in vivo, Ambrosia artemisiifolia; details: 10 days
How it was run: as §1

ryegrass, Italian [20] = experiment: Test C postemergence; assay type: in vivo, Lolium multiflorum; details: 10 days
How it was run: as §1

soybean [21] = experiment: Test C postemergence; assay type: in vivo, Glycine max; details: 10 days
How it was run: as §1

wheat [22] = experiment: Test C postemergence; assay type: in vivo, Triticum aestivum; details: 10 days
How it was run: as §1

horseweed = experiment: Test C postemergence; assay type: in vivo, Erigeron canadensis; details: 10 days
How it was run: as §1

barnyardgrass [23] = experiment: Test D flooded paddy test; assay type: in vivo, Echinochloa crus-galli; details: 250 g ai/ha, applied to paddy water, visual rating after 13 to 14 days, scale 0 to 100 (0 no effect, 100 complete control)
How it was run: (§2)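 Rating scale 0–100 (0 no effect, 100 complete control), visual, versus controls. Readout at 13–14 days after in-water application to 2-leaf plants in pots flooded 3 cm deep.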

ducksalad = experiment: Test D flooded paddy test; assay type: in vivo, Heteranthera limosa; details: 250 g ai/ha, applied to paddy water, visual rating after 13 to 14 days, scale 0 to 100 (0 no effect, 100 complete control)
How it was run: as §2

rice = experiment: Test D flooded paddy test; assay type: in vivo, Oryza sativa; details: 250 g ai/ha, applied to paddy water, visual rating after 13 to 14 days, scale 0 to 100 (0 no effect, 100 complete control)
How it was run: as §2

sedge, umbrella = experiment: Test D flooded paddy test; assay type: in vivo, Cyperus difformis; details: 250 g ai/ha, applied to paddy water, visual rating after 13 to 14 days, scale 0 to 100 (0 no effect, 100 complete control)
How it was run: as §2

[24] = 500 g ai/ha, 0 to 100 scale (0 no effect, 100 complete control)
[25] = 125 g ai/ha, 0 to 100 scale, 0 no effect, 100 complete control
[26] = 500 g ai/ha, postemergence, 0 to 100 scale (0 no effect, 100 complete control)
[27] = Postemergence, 125 g ai/ha, 0 to 100 scale (0 no effect, 100 complete control)
[28] = 500 g ai/ha, visual rating after 10 days, 0 to 100 scale (0 no effect, 100 complete control)
[29] = Test C, 125 g ai/ha, 0 to 100 scale (0 no effect, 100 complete control)
[30] = 125 g ai/ha, postemergence, 0 to 100 scale, 0 no effect, 100 complete control
[31] = Postemergence, 500 g ai/ha, visual 0 to 100 scale (0 no effect, 100 complete control)

CCOC[C@H]1CN(C(=O)c2cc(-n3cnc(C4CCC4)n3)cc3c2OCO3)c2cccc(Cl)c2O1 [Compound 399]
Barnyardgrass plant response rating (barnyardgrass [1]; [24]): 70 | Plant response rating, Barnyardgrass (barnyardgrass [1]; [25]): 10 | Blackgrass plant response rating (blackgrass [2]; [24]): 0 | Plant response rating, Blackgrass (blackgrass [2]; [25]): 0 | Corn plant response rating (corn [3]; [24]): 0 | Plant response rating, Corn (corn [3]; [25]): 0 | Foxtail, Green plant response rating (green foxtail [4]; [24]): 100 | Plant response rating, Foxtail, Green (green foxtail [4]; [25]): 20 | Kochia plant response rating (kochia [5]; [24]): 70 | Plant response rating, Kochia (kochia [5]; [25]): 0 | Oat, Wild plant response rating (oat, wild [6]; [24]): 30 | Plant response rating, Oat, Wild (oat, wild [6]; [25]): 0 | Pigweed, Palmer plant response rating (pigweed, palmer [7]; 500 g ai/ha, preemergence, 0 to 100 scale (0 no effect, 100 complete control)): 100 | Plant response rating, Pigweed, Palmer (pigweed, palmer [7]; [25]): 100 | Ragweed plant response rating (ragweed [8]; [24]): 80 | Plant response rating, Ragweed (ragweed [8]; [25]): 30 | Ryegrass, Italian plant response rating (ryegrass, Italian [9]; [24]): 70 | Plant response rating, Ryegrass, Italian (ryegrass, Italian [9]; [25]): 50 | Soybean plant response rating (soybean [10]; [24]): 20 | Plant response rating, Soybean (soybean [10]; [25]): 0 | Wheat plant response rating (wheat [11]; [24]): 10 | Plant response rating, Wheat (wheat [11]; [25]): 0 | Plant response rating, Barnyardgrass (barnyardgrass [12]; [26]): 30 | Plant response rating, Barnyardgrass (barnyardgrass [12]; [27]): 20 | Plant response rating, Blackgrass (blackgrass [13]; [26]): 20 | Plant response rating, Blackgrass (blackgrass [13]; [27]): 0 | Plant response rating, Corn (corn [14]; [26]): 10 | Plant response rating, Corn (corn [14]; [27]): 0 | Plant response rating, Foxtail, Green (green foxtail [15]; [26]): 40 | Plant response rating, Foxtail, Green (green foxtail [15]; [27]): 10 | Plant response rating, Kochia (kochia [16]; [26]): 90 | Plant response rating, Kochia (kochia [16]; [27]): 90 | Plant response rating, Oat, Wild (oat, wild [17]; [26]): 0 | Plant response rating, Oat, Wild (oat, wild [17]; [27]): 0 | Plant response rating, Pigweed, Palmer (pigweed, palmer [18]; [26]): 100 | Plant response rating, Pigweed, Palmer (pigweed, palmer [18]; [27]): 100 | Plant response rating, Ragweed (ragweed [19]; [27]): 70 | Plant response rating, Ryegrass, Italian (ryegrass, Italian [20]; [27]): 0 | Plant response rating, Soybean (soybean [21]; [27]): 0 | Plant response rating, Wheat (wheat [22]; [27]): 20 | Plant response rating, Horseweed (horseweed; [26]): 70 | Plant response rating, Horseweed (horseweed; [27]): 50 | Plant response rating, Barnyardgrass (Flood) (barnyardgrass [23]): 0 | Plant response rating, Ducksalad (Flood) (ducksalad): 0 | Plant response rating, Rice (Flood) (rice): 0 | Plant response rating, Sedge, Umbrella (Flood) (sedge, umbrella): 0

Cc1cn(-c2cccc(C(=O)N3C[C@H](C)Oc4c(C)cccc43)c2)cn1 [Compound 232]
Plant response rating, Barnyardgrass (barnyardgrass [1]; [28]): 0 | Barnyardgrass plant response rating (barnyardgrass [1]; [29]): 0 | Plant response rating, Blackgrass (blackgrass [2]; [28]): 0 | Blackgrass plant response rating (blackgrass [2]; [29]): 0 | Plant response rating, Corn (corn [3]; [28]): 0 | Corn plant response rating (corn [3]; [29]): 0 | Plant response rating, Foxtail, Green (green foxtail [4]; [28]): 0 | Foxtail, Green plant response rating (green foxtail [4]; [29]): 0 | Plant response rating, Kochia (kochia [5]; [28]): 0 | Kochia plant response rating (kochia [5]; [29]): 0 | Plant response rating, Oat, Wild (oat, wild [6]; [28]): 0 | Oat, Wild plant response rating (oat, wild [6]; [29]): 0 | Plant response rating, Pigweed, Palmer (pigweed, palmer [7]; [28]): 0 | Plant response rating, Ragweed (ragweed [8]; [28]): 0 | Ragweed plant response rating (ragweed [8]; [29]): 0 | Plant response rating, Ryegrass, Italian (ryegrass, Italian [9]; [28]): 20 | Ryegrass, Italian plant response rating (ryegrass, Italian [9]; [29]): 20 | Plant response rating, Soybean (soybean [10]; [28]): 0 | Soybean plant response rating (soybean [10]; [29]): 0 | Plant response rating, Wheat (wheat [11]; [28]): 0 | Wheat plant response rating (wheat [11]; [29]): 0 | Plant response rating, Barnyardgrass (barnyardgrass [12]; [30]): 10 | Plant response rating, Barnyardgrass (barnyardgrass [12]; [31]): 20 | Plant response rating, Blackgrass (blackgrass [13]; [30]): 0 | Plant response rating, Blackgrass (blackgrass [13]; [31]): 50 | Plant response rating, Corn (corn [14]; [30]): 0 | Plant response rating, Corn (corn [14]; [31]): 0 | Plant response rating, Foxtail, Green (green foxtail [15]; [30]): 0 | Plant response rating, Foxtail, Green (green foxtail [15]; [31]): 30 | Plant response rating, Kochia (kochia [16]; [30]): 0 | Plant response rating, Kochia (kochia [16]; [31]): 60 | Plant response rating, Oat, Wild (oat, wild [17]; [30]): 0 | Plant response rating, Oat, Wild (oat, wild [17]; [31]): 0 | Plant response rating, Pigweed, Palmer (pigweed, palmer [18]; [30]): 0 | Plant response rating, Pigweed, Palmer (pigweed, palmer [18]; [31]): 10 | Plant response rating, Ragweed (ragweed [19]; [30]): 0 | Plant response rating, Ragweed (ragweed [19]; [31]): 30 | Plant response rating, Ryegrass, Italian (ryegrass, Italian [20]; [30]): 30 | Plant response rating, Ryegrass, Italian (ryegrass, Italian [20]; [31]): 60 | Plant response rating, Soybean (soybean [21]; [30]): 100 | Plant response rating, Soybean (soybean [21]; [31]): 100 | Plant response rating, Wheat (wheat [22]; [30]): 10 | Plant response rating, Wheat (wheat [22]; [31]): 10 | Plant response rating, Horseweed (horseweed; [30]): 0 | Plant response rating, Horseweed (horseweed; [31]): 0 | Plant response rating, Barnyardgrass (Flood) (barnyardgrass [23]): 0 | Plant response rating, Ducksalad (Flood) (ducksalad): 0 | Plant response rating, Rice (Flood) (rice): 0 | Plant response rating, Sedge, Umbrella (Flood) (sedge, umbrella): 0
